Source: US20050014699A1, “Combinations of enzyme inhibitor-containing preparations and the use thereof” (priority 2000, published 2005)

Tests used:
Format in all cases: cell-based
[1] = system: human T cell line KARPAS-299; experiment: WST-1 cell proliferation assay, KARPAS-299 cells; settings: single and simultaneous administration of I49 and APN inhibitors Actinonin and Probestin (FIG. 8)
Method: FIG. 8: The KARPAS-299 cells were incubated without addition (control) and in the presence of single inhibitors mentioned above as well as in the presence of combinations thereof, respectively. Subsequently, the number of metabolically active cells was determined by using the commercially available WST-1 cell proliferation assay (Takara Inc.) in accordance with the provisions of the manufacturer.

[2] = system: human peripheric T lymphocytes; experiment: DNA synthesis of human peripheric T lymphocytes, 3[H]-thymidine incorporation; settings: 72 h incubation
Method: The T cells were incubated for 72 h in the presence of said inhibitors and subsequently, the DNA synthesis rate was determined via a measurement of the ^3[H]-thymidin incorporation, as was described by Reinhold et al. [D. Reinhold et al,: “Inhibitors of dipeptidyl peptidase IV induce secretion of transforming growth factor β1 in PWM-stimulated PBMNC and T cells”, Immunology 1997, 91, 354-360].
Human peripheric T cells were incubated over 3 days with the concentrations of the inhibitors shown. Subsequently, ^3[H]-methyl thymidine was added to the culture medium, and the amount of ^3[H]-thymidine inserted into the DNA was measured after further 6 hours.
The T cells were incubated for 72 h in the presence of said inhibitors, and the DNA synthesis rate was determined subsequently by the measurement of the ^3[H]-thymidine incorporation, as was described by Reinhold et al. [D. Reinhold et al.: “Inhibitors of dipeptidyl peptidase IV induce secretion of transforming growth factor β1 in PWM-stimulated PBMNC and T cells”, Immunology 1997, 91, 354-360].
FIG. 3 show a the synergistic and dose-dependent effect of inhibitors of DP IV (I49) and of prolyl oligopeptidase (Boc-Ala-Thia) on the DNA synthesis of human peripheric T lymphocytes. Human T cells were incubated for three days with the concentrations of inhibitors mentioned above. Subsequently, ^3[H]-methyl thymidine was added to the culture medium, and the amount of ^3[H]-thymidine incorporated into the DNA was measured after further 6 hours.
Human T cells were incubated for three days with the concentrations of inhibitors mentioned above. Subsequently, ^3[H]-methyl thymidine was added to the culture medium, and the amount of ^3[H]-thymidine incorporated into the DNA was measured after further 6 hours.

[3] = system: PHA-activated human mononuclear cells (MNZ); experiment: WST-1 cell proliferation assay, PHA-activated human mononuclear cells (MNZ)
Method: FIG. 7: The MNZ were incubated for a time period of 72 h without addition (control), with an addition of the mitogenic lectin phytohemagglutinin (PHA), and with the addition of PHA and the inhibitors mentioned above, respectively. Subsequently, the number amount of metabolically active cells was determined by using the commercially available WST-1 cell proliferation assay (Takara Inc.) in accordance with the provisions of the manufacturer.
FIG. 10: The mononuclear cells (MNZ) were incubated for a time period of 72 h in the presence of the inhibitors mentioned above single and in combination. Subsequently, the number of metabolically active cells was determined by using the commercially available WST-1 cell proliferation assay (Takara Inc.) in accordance with the provisions of the manufacturer.

[4] = system: activated human peripheric T cells; experiment: WST-1 cell proliferation assay, activated human peripheric T cells; settings: single or simultaneous administration of I49 and APN inhibitors Actinonin and Probestin; activation by phytohemagglutinine and phorbol-12-myristate-13-acetate; 72 h (FIG. 9)
Method: FIG. 9: The T cells, with the exception of the untreated control, were activated by an addition of phytohemagglutinine and phorbol-12-myristate-13-acetate to the culture medium and were incubated for a time period of 72 h in the presence of the above-mentioned inhibitors single and in combination. Subsequently, the number of metabolically active cells was determined by using the commercially available WST-1 cell proliferation assay (Takara Inc.) in accordance with the provisions of the manufacturer.

[5] = system: human peripheric mononuclear cells (MNZ); experiment: DNA synthesis of human peripheric mononuclear cells (MNZ), 3[H]-thymidine incorporation; settings: 72 h incubation
Method: The MNZ were incubated for 72 h in the presence of said inhibitors, and the DNA synthesis rate was determined subsequently by the measurement of the ^3[H]-thymidine incorporation, as was described by Reinhold et al. [D. Reinhold et al.: “Inhibitors of dipeptidyl peptidase IV induce secretion of transforming growth factor β1 in PWM-stimulated PBMNC and T cells”, Immunology 1997, 91, 354-360].
Human MNZ were incubated for three days with the concentrations of inhibitors mentioned above. Subsequently, ^3[H]-methyl thymidine was added to the culture medium, and the amount of ^3[H]-thymidine incorporated into the DNA was measured after further 6 hours.
The MNZ were incubated for 72 h in the presence of said inhibitors, and the DNA synthesis rate was determined subsequently by the measurement of the ^3[H]-thymidine incorporation, as was described by Reinhold et al. [D. Reinhold et al.; “Inhibitors of dipeptidyl peptidase IV induce secretion of transforming growth factor β1 in PWM-stimulated PBMNC and T cells”, Immunology 1997, 91, 354-360].

[6] = simultaneous administration of DP IV inhibitor I49 and APN inhibitor Actinonin, dose-dependent (FIG. 1)
[7] = single and simultaneous administration of I49 and Actinonin, PHA, 72 h (FIG. 7)
[8] = simultaneous administration of DP IV inhibitor I49 and APN inhibitor actinonine, dose-dependent (FIG. 2)
[9] = single or simultaneous administration of I49 and APP inhibitor Apstatin, PHA-activated, 72 h (FIG. 10)
[10] = simultaneous administration of DP IV inhibitor I49 and prolyl oligopeptidase inhibitor Boc-Ala-thiazolidid, dose-dependent (FIG. 3)
[11] = simultaneous administration of DP IV inhibitor I49 and prolyl oligopeptidase inhibitor Boc-Ala-Thiazolidid, dose-dependent (FIG. 4)
[12] = simultaneous administration of DP IV inhibitor I49 and ACE inhibitor Captopril, dose-dependent (FIG. 5)
[13] = simultaneous administration of DP IV inhibitor I49 and ACE inhibitor Captopril, dose-dependent (FIG. 6)

Row | Structure (SMILES) | inhibition of proliferation (number of metabolically active cells) [1] | inhibition of DNA synthesis [2, 6] | inhibition of proliferation (number of metabolically active cells) [3, 7] | inhibition of proliferation (number of metabolically active cells) [4] | inhibition of DNA synthesis [5, 8] | inhibition of proliferation (number of metabolically active cells) [3, 9] | inhibition of DNA synthesis [2, 10] | inhibition of DNA synthesis [5, 11] | inhibition of DNA synthesis [2, 12] | inhibition of DNA synthesis [5, 13]
1 | CCCCC[C@H](CC(=O)NO)C(=O)N[C@H](C(=O)N1CCC[C@H]1CO)C(C)C [Actinonin] | Inhibition of the Proliferation | inhibited in a superadditive manner | Inhibition of the Proliferation | Inhibition of the Proliferation | inhibited in a superadditive manner |  |  |  |  | 
2 | C[C@H](NC(=O)[C@@H]1CCCN1C(=O)[C@@H]1CCCN1C(=O)[C@@H](O)[C@H](N)Cc1ccccc1)C(N)=O [Apstatin] |  |  |  |  |  | Inhibition of the Proliferation |  |  |  | 
3 | CC(NC(=O)OC(C)(C)C)C(=O)N1CCSC1 (stereo not drawn) [Boc-Ala-thiazolidid] |  |  |  |  |  |  | inhibited in a superadditive manner | inhibited in a superadditive manner |  | 
4 | C[C@H](CS)C(=O)N1CCC[C@H]1C(=O)O [Captopril] |  |  |  |  |  |  |  |  | inhibited in a superadditive manner | inhibited in a superadditive manner
5 | NC(CCCCNC(=O)OCc1ccc([N+](=O)[O-])cc1)C(=O)N1CCSC1 (stereo not shown) [I49, Lys[Z(NO2)]-thiazolidid] | Inhibition of the Proliferation | inhibited in a superadditive manner | Inhibition of the Proliferation | Inhibition of the Proliferation | inhibited in a superadditive manner | Inhibition of the Proliferation | inhibited in a superadditive manner | inhibited in a superadditive manner | inhibited in a superadditive manner | inhibited in a superadditive manner
6 | CC(C)C[C@H](NC(=O)[C@@H](O)[C@H](N)Cc1ccccc1)C(=O)N1CCC[C@H]1C(=O)N1CCC[C@H]1C(=O)O [Probestin] | Inhibition of the Proliferation |  |  | Inhibition of the Proliferation |  |  |  |  |  | 
